From patent publication US11059825B2, “CXCR7 antagonists” (CHEMOCENTRYX, INC., priority 2012, dated 2021)

Legend:
[1] = target: T1, CXCR7 receptor (Homo sapiens (Human), UniProt P25106); assay: Serum Binding Analysis: displacement of 125I SDF-1 from CXCR7 in 100% human serum; details: 100% human serum (human AB serum with 10 mM HEPES), MCF-7 and/or MDA-MB-435S CXCR7 transfected cells, 125I SDF-1, 3 hrs at 4° C.; read-out: Avg Ser IC50
Method: (§1) The ability of the compounds to displace the labeled chemokine from the CXCR7 receptor sites at multiple concentrations was then determined with the screening process.
(§2) ^125I-labeled SDF-1 was purchased from Perkin-Elmer Life Sciences, Inc. (Boston, Mass.). The MCF-7 (adenocarcinoma; mammary gland) cell line was obtained from the American Type Culture Collection (ATCC, Manassas, Va.) or and was cultured in DMEM (Mediatech, Herndon, Va.) supplemented with 10% fetal bovine serum (FBS) (HyClone Logan, Utah) and bovine insulin (0.01 mg/mL) (Sigma, St. Louis, Mo.) at 37° C. in a humidified incubator at a 5% CO2/air mixture. CXCR7 transfected MDA-MB-435S were produced as described below. MDA-MB-435 S human breast cancer line, was purchased from ATCC, and cultured in DMEM/10% FBS medium. The complete coding sequence of the gene encoding CXCR7 (a.k.a. CCXCKR2, hRDC1), was isolated from MCF-7 cells using MACs mRNA isolation kit (Miltenyi Biotec, Auburn, Calif.). DNA contamination was removed by DNase digestion via RNeasy columns (Qiagen, Inc., Valencia, Calif.) and cDNA was generated using GeneAmp RNA PCR Core Kit (Applied Biosystems, Foster City, Calif.). PCR of cDNA samples was performed using Taq PCR Master Mix kit (Qiagen, Inc.) and hRDC1 primers harboring 5′ and 3′ Not I sites (hRDC1F 5′ […]-3′, hRDC1R 5′-[…]-3′) Not I digested PCR product was ligated into Not I digested pcDNA3.1 (+)(Invitrogen, Carlsbad, Calif.) and screened for orientation and sequence confirmed. Plasmid DNA was then isolated from overnight bacterial cultures by Maxiprep (Qiagen, Inc.). Plasmid DNA (10 μg) was added to MDA-MB-435s cells and cells were electroporated (0.22 kV, 960 uF) via Gene Pulser (Biorad laboratories, Hercules, Calif.). 48 hr post-electroporation, cells were transferred to selection medium (600 ug/ml G418).
In order to more properly assess the binding efficacy of the compounds, radioligand binding assays were carried out in the presence of 100% human serum to more accurately reflect the in vivo environment. […] Target compounds were tested to determine their ability to bind with CXCR7 sites on MCF-7 and/or MDA-MB-435S CXCR7 transfected cells. Efficiency-maximized radioligand binding using filtration protocols as described in Dairaghi D J, et al., HHV8-encoded vMIP-I selectively engages chemokine receptor CCR5. Agonist and antagonist profiles of viral chemokines., J. Biol. Chem. 1999 Jul. 30; 274(31): 21569-74 and Gosling J, et al., Cutting edge: identification of a novel chemokine receptor that binds dendritic cell- and T cell-active chemokines including ELC, SLC, and TECK., J. Immunol. 2000 Mar. 15; 164(6):2851-6 was used.
In these assays, MCF-7 and/or MDA-MB-435S cells were interrogated with the target compounds and the ability of these compounds to displace 125 I radiolabeled SDF-1 was assessed using the protocol described in Dairaghi and Gosling. The target compounds were added to the plate to the indicated concentration followed by addition of cells and radiolabeled chemokine (125I SDF-1), both in the following medium (human AB serum with 10 mM HEPES added to stabilize at pH 7.4). All assays were then incubated for 3 hrs at 4° C. with gentle agitation. Following incubation in all binding assays, reactions were aspirated onto PEI-treated GF/B glass filters (Packard) using a cell harvester (Packard) and washed twice (25 mM HEPES, 500 mM NaCl, 1 mM CaCl2, 5 mM MgCl2, adjusted to pH 7.1). Scintillant (MicroScint 10, Packard) was added to the wells, and the filters were counted in a Packard Topcount scintillation counter. Data were analyzed and plotted using GraphPad Prism (GraphPad Software).

[2] = target: T1, CXCR7 receptor; assay: Buffer Binding Analysis: displacement of 125I-labeled SDF-1 from CXCR7 on cells; details: buffer binding medium, MCF-7 and/or MDA-MB-435S CXCR7 transfected cells, 125I SDF-1, 3 hr at 4° C.; read-out: Avg Bind IC50
Method: as §1, §2
Target compounds can be tested to determine their ability to bind with CXCR7 sites on MCF-7 and/or MDA-MB-435S CXCR7 transfected cells. Efficiency-maximized radioligand binding using filtration protocols as described in Dairaghi D J, et al., HHV8-encoded vMIP-1 selectively engages chemokine receptor CCR5. Agonist and antagonist profiles of viral chemokines., J. Biol. Chem. 1999 Jul. […]
In these assays, MCF-7 and/or MDA-MB-435S cells are interrogated with the target compounds and the ability of these compounds to displace ^125I radiolabeled SDF-1 assessed using the protocol described in Dairaghi and Gosling. […] Scintillant (MicroScint 10, Packard) is added to the wells, and the filters counted in a Packard Topcount scintillation counter. Data are analyzed and plotted using GraphPad Prism (GraphPad Software).

[3] = tested on: C6 cells implanted into the brains of Sprague-Dawley rats; assay: Rat C6 model of glioblastoma; format: in vivo; details: tumors irradiated after 7 days with 5-20 Gy, then treated with compound
Method: Many tumor models in animals are known in the art, and may be employed to evaluate a compound of instance. For instance, in a rat C6 model of glioblastoma, 1×10^6 C6 cells were implanted by stereotactic injection into the into the brains of Sprague-Dawley rats. After 7 days tumors were irradiated with between 5-20 Gy of radiation. Following irradiation rats were treated (eg via subcutaneous, intraperitoneal, oral, parenteral or other route) with compound or vehicle control and tumors are allowed to progress. Animals were followed until death or loss of >20% weight, or removed for tumor induced neurodeficits eg seizures and immobility in according with appropriate regulations and standards.

T1 sequence (P25106 whole entry): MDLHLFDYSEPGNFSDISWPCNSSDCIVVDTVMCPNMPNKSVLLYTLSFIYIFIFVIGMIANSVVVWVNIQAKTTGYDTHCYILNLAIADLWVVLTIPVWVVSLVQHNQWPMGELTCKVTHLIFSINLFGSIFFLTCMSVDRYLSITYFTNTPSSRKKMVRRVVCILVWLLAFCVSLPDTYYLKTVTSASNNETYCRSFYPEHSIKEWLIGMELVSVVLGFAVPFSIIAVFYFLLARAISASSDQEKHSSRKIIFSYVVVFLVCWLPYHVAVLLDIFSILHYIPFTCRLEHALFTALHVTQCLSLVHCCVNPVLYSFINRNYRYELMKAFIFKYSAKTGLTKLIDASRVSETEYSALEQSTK

SMILES	IC50 [1]	IC50 [2]	antitumor activity (delay in tumor growth vs vehicle treated control; Kaplan Meier analysis of survival) [3]
O=C(N[C@@H]1CCN(c2nccn3ccnc23)C1)c1ncn(-c2ccccc2)n1 [Compound 1.027]	500 to 2500 nM	–	–
Cc1ccn2ccnc(N3CC[C@H](NC(=O)c4csc(N5CCC(O)CC5)n4)C3)c12 [Compound 1.097]	≤ 500 nM	≤ 500 nM	–
O=C(N[C@H]1CCN(c2nccn3ccnc23)C1)c1noc(-c2ccccc2)n1 [Compound 1.121]	≤ 500 nM	≤ 500 nM	–
O=C(N[C@H]1CCN(c2nccn3ccnc23)C1)c1csc(N2CCC3(CC3)C(O)C2)n1 (stereo partly shown) [Compound 1.047]	2500 to 15000 nM	–	–
O=C(N[C@H]1CCN(c2nccn3ccnc23)C1)c1ncn(-c2ccc(F)cc2)n1 [Compound 1.090]	–	–	profound antitumor activity
O=C(N[C@H]1CCN(c2nccn3cnnc23)C1)c1ncn(-c2ccccc2)n1 [Compound 1.127]	500 to 2500 nM	–	–
O=C(N[C@H]1CCN(c2nccn3cccc23)C1)c1csc(N2CCC(O)CC2)n1 [Compound 1.098]	≤ 500 nM	≤ 500 nM	–
O=C(N[C@H]1CCN(c2nccn3cccc23)C1)c1ccn(-c2ccc(F)cc2)n1 [Compound 1.128]	≤ 500 nM	≤ 500 nM	–
CN(C)c1cnc(C(=O)N[C@H]2CCN(c3nccn4cccc34)C2)nc1 [Compound 1.049]	≤ 500 nM	–	–
